Reference: ChEMBL document CHEMBL4043274, “4-Hydroxy-2-pyridones: Discovery and evaluation of a novel class of antibacterial agents targeting DNA synthesis” (Bioorg Med Chem Lett, 2017)
Values after ≈ are worked out from the molar mass of the structure shown.

What was measured:
Escherichia coli [1] = experiment: Antibacterial activity against wild-type Escherichia coli ATCC 25922 by CLSI M100-S17 protocol based method; type: functional
Escherichia coli [2] = experiment: Antibacterial activity against Escherichia coli BAS849 by CLSI M100-S17 protocol based method; type: functional
Escherichia coli [3] = experiment: Antibacterial activity against quinolone resistant Escherichia coli SKM18 by CLSI M100-S17 protocol based method; type: functional
[4] = Selectivity ratio of MIC for wild-type Escherichia coli ATCC 25922 to MIC for Escherichia coli BAS849; type: functional
[5] = Inhibition of Escherichia coli ATCC 25922 topoisomerase-4 ParC at 100 uM using kinetoplast DNA as substrate after 60 mins relative to control
Escherichia coli [6] = experiment: Antibacterial activity against clinical isolates of Escherichia coli by broth microdilution assay; type: functional
[7] = Terminal half life in Sprague-Dawley rat at 5 mg/kg, iv administered as single dose; type: ADME, organism-based; details: in vivo, read-out: beta t1/2 (converted)
[8] = Protein binding in mouse plasma; type: ADME, cell-free; details: read-out: PPB (converted)
[9] = Inhibition of DNA gyrase-A in Escherichia coli ATCC 25922 using relaxed pBR322 DNA as substrate after 30 mins by ethidium bromide staining based agarose gel electrophoresis method
Escherichia coli [10] = experiment: Antibacterial activity against wild-type Escherichia coli ATCC 25922 infected in iv dosed CD-1 mouse assessed as mouse survival treated for 1 hr followed by reinfection with bacteria measured at 96 hrs post infection; type: functional; details: ATCC 25922, iv, read-out: PD50
Escherichia coli [11] = experiment: Antibacterial activity against wild-type Escherichia coli ATCC 25922 in presence of human serum albumin by CLSI M100-S17 protocol based method; type: functional
[12] = Oral bioavailability in Sprague-Dawley rat; type: ADME, organism-based; details: in vivo
Acinetobacter baumannii = experiment: Antibacterial activity against Acinetobacter baumannii ATCC BAA-747 by CLSI M100-S17 protocol based method; type: functional
Staphylococcus aureus = experiment: Antibacterial activity against multidrug resistant Staphylococcus aureus by broth microdilution assay; type: functional
Rattus norvegicus [13] = experiment: Dose normalized AUC (0 to 24 hrs) in Sprague-Dawley rat at 5 mg/kg, iv administered as single dose; type: ADME, organism-based; details: in vivo
Klebsiella pneumoniae = experiment: Antibacterial activity against Klebsiella pneumoniae ATCC 35657 by CLSI M100-S17 protocol based method; type: functional
[14] = Volume of distribution at steady state in Sprague-Dawley rat at 5 mg/kg, iv administered as single dose; type: ADME, organism-based; details: in vivo, read-out: Vdss
Escherichia coli [15] = experiment: Ratio of MIC in presence to absence of HSA for wild-type Escherichia coli ATCC 25922; type: functional
[16] = Terminal half life in Sprague-Dawley rat at 10 mg/kg, iv administered as single dose; type: ADME, organism-based; details: in vivo, read-out: beta t1/2 (converted)
[17] = Volume of distribution at steady state in Sprague-Dawley rat at 10 mg/kg, iv administered as single dose; type: ADME, organism-based; details: in vivo, read-out: Vdss
Rattus norvegicus [18] = experiment: Dose normalized AUC (0 to 24 hrs) in Sprague-Dawley rat at 10 mg/kg, iv administered as single dose; type: ADME, organism-based; details: in vivo

SMILES	MIC (Escherichia coli [1]) [mg/L]	MIC (Escherichia coli [2]) [mg/L]	MIC (Escherichia coli [3]) [mg/L]	MIC (Escherichia coli [11]) [mg/L]	MIC (Acinetobacter baumannii) [mg/L]	MIC (Staphylococcus aureus) [mg/L]	MIC50 (Staphylococcus aureus) [mg/L]	MIC90 (Staphylococcus aureus) [mg/L]	MIC (Klebsiella pneumoniae) [mg/L]	other results
CCc1cc(C(=O)O)c(=O)[nH]c1-c1ccc(N(C)C)cc1	0.78 (≈ 2.72 µM)	0.03 (≈ 0.105 µM)	> 62.5	–	–	–	–	–	–	–
CN(C)c1ccc(-c2[nH]c(=O)c(C(=O)O)c(O)c2C2CCCCC2)cc1	> 62.5	6.25 (≈ 17.5 µM)	–	–	–	–	–	–	–	–
CCc1c(-c2ccc(N(CC)CC)cc2)[nH]c(=O)c(C(=O)O)c1O	> 62.5	0.24 (≈ 0.726 µM)	–	–	–	–	–	–	–	Selectivity ratio [4]: > 50
CCc1c(-c2ccc(N3C[C@@H]4[C@@H](N)[C@@H]4C3)cc2)[nH]c(=O)c(C(=O)O)c1O	0.19 (≈ 0.535 µM)	0.049 (≈ 0.138 µM)	12.5 (≈ 35.2 µM)	0.78	0.78 (≈ 2.19 µM)	0.5 to 8 (≈ 1.41 to 22.5 µM)	1 (≈ 2.81 µM)	8 (≈ 22.5 µM)	0.39 (≈ 1.1 µM)	IC50 [5]: 2.4 µM; MIC50 (Escherichia coli [6]): 0.25 mg/L (≈ 0.703 µM); MIC90 (Escherichia coli [6]): 8 mg/L (≈ 22.5 µM); half-life [7]: 2.9 h; fraction unbound [8]: 0.12; IC50 [9]: 0.77 µM; ED50 (Escherichia coli [10]): 8 mg/kg; bioavailability [12]: 17%; AUC/dose (Rattus norvegicus [13]): 30.7 µg·h/mL; Vd [14]: 0.54 L/kg
CCc1c(-c2ccc(N3CCC(C4(N)CC4)C3)cc2)[nH]c(=O)c(C(=O)O)c1O (configuration not stated)	1.6 (≈ 4.17 µM)	0.39 (≈ 1.02 µM)	–	12.5	3.1 (≈ 8.08 µM)	–	–	–	3.1 (≈ 8.08 µM)	Ratio (Escherichia coli [15]): 4 - 8
CCc1c(-c2ccc(N(C)C)cc2F)[nH]c(=O)c(C(=O)O)c1O	> 12.5	≤ 0.2	–	–	–	–	–	–	–	–
CCc1c(-c2ccc(OC)cc2)[nH]c(=O)c(C(=O)O)c1O	7.8 (≈ 27 µM)	≤ 0.2	–	–	–	–	–	–	–	–
CCc1c(-c2ccc(N3CC4CCCNC4C3)cc2)[nH]c(=O)c(C(=O)O)c1O (configuration not stated)	0.78 (≈ 2.03 µM)	0.19 (≈ 0.496 µM)	3.1 (≈ 8.08 µM)	1.6	1.6 (≈ 4.17 µM)	0.125 to 16 (≈ 0.326 to 41.7 µM)	0.5 (≈ 1.3 µM)	8 (≈ 20.9 µM)	0.8 (≈ 2.09 µM)	IC50 [5]: 15.7 µM; MIC (Escherichia coli [6]): 0.125 to 2 mg/L (≈ 0.326 to 5.22 µM); MIC50 (Escherichia coli [6]): 0.5 mg/L (≈ 1.3 µM); MIC90 (Escherichia coli [6]): 2 mg/L (≈ 5.22 µM); half-life [16]: 3.9 h; fraction unbound [8]: 0.27; ED50 (Escherichia coli [10]): > 20 mg/kg; bioavailability [12]: 8%; Vd [17]: 2.9 L/kg; AUC/dose (Rattus norvegicus [18]): 13.9 µg·h/mL; Ratio (Escherichia coli [15]): <4
CCc1c(-c2ccc(N(C)C)c(C)c2)[nH]c(=O)c(C(=O)O)c1O	> 12.5	1.6 (≈ 5.06 µM)	–	–	–	–	–	–	–	–
O=C(O)c1cn(C2CC2)c2cc(N3CCNCC3)c(F)cc2c1=O [CIPROFLOXACIN]	–	–	–	–	–	0.125 to 64 (≈ 0.377 to 193 µM)	64 (≈ 193 µM)	> 64	–	–
